Source: the supplement of paper PMC3974653
Where a name gives a salt, the structure may show the parent alone.

These molecules were tested on MTT (mouse pheochromocytoma) (assay: IC50 of cell viability (ATP content)). Conditions: (24 or 48 h).
Summary of the method: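 Library compounds were tested at 8 final concentrations (0.5 nM to 46 µM) on MTT mouse pheochromocytoma cells for 24 or 48 hrs, with readout by CellTiter-Glo ATP luminescence. Signals were normalised with positive-control wells at 100% and DMSO wells at 0%. IC50 values were obtained by a four-parameter logistic fit.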

SMILES	IC50 of cell viability
CN(C)CCO[C@](C)(c1ccccc1)c1ccccn1.O=C(O)CCC(=O)O [Doxylamine succinate]	> 46 µM
O=C(O)CN1C(=O)c2cccc3cccc(c23)C1=O [Alrestatin]	> 46 µM
[O]=[Bi][O][Bi]=[O] [BISMUTH OXIDE]	> 46 µM
c1ccc(CN2CCNCC2)cc1 [1-Benzylpiperazine]	> 46 µM
CC(C)=CC1C(C(=O)OCc2cccc(Oc3ccccc3)c2)C1(C)C (stereo unspecified) [PHENOTHRIN]	> 46 µM
CCC1(c2cnc[nH]2)Cc2ccccc2C1 [Atipamezole]	> 46 µM
CN[C@H]1C[C@@H](N)[C@H](O)[C@@H](O[C@@H]2O[C@H](CO)[C@H](O)[C@@H]3O[C@]4(O[C@@H]23)O[C@H]([C@@H](N)CO)[C@H](O)[C@@H](O)[C@H]4O)[C@@H]1O [Hygromycin B]	> 46 µM
CCN[C@@]1(c2cccs2)CCCCC1=O [Tiletamine hydrochloride]	> 46 µM
Br.COc1ccc2c(c1)[C@]13CCCC[C@@H]1[C@H](C2)N(C)CC3.O [Dextromethorphan hydrobromide monohydrate]	> 46 µM
Nc1ccc(O)c([N+](=O)[O-])c1 [4-Amino-2-nitrophenol]	> 46 µM
CN1C(=S)CN=C(c2ccccc2)c2cc(Cl)ccc21 [Sulazepam]	> 46 µM
CCCC(=O)Nc1ccc(OC[C@@H](O)CNC(C)C)c(C(C)=O)c1 [Acebutolol hydrochloride]	> 46 µM
CCOCCn1c(N2CCCN(C)CC2)nc2ccccc21 [EMEDASTINE DIFUMARATE]	> 46 µM
O=C1NCN(c2ccccc2)C12CCN(CCCOc1ccc(F)cc1)CC2 [AMI-193]	> 46 µM
CCCCCCCCCCCCCCCCO [CETYL ALCOHOL]	> 46 µM
CC1(C)OC[C@@H]2O[C@@]3(C(=O)O)OC(C)(C)O[C@@H]3[C@@H]2O1 [Dikegulac]	> 46 µM
O=C(Nc1ccc([S+](=O)([O-])N2CCOCC2)cc1)c1cc(Cl)ccc1N[S+](=O)([O-])c1ccc(Cl)s1 [Ataciguat]	> 46 µM
C[C@]12CC[C@H]3[C@@H](CC/C4=C/C(=O)CC[C@]34C)[C@@H]1CC[C@H]2O [Testosterone]	> 46 µM

SMILES	IC50 of cell viability
C=CCSSSCC=C [DIALLYL TRISULFIDE]	> 46 µM
CC(=O)N[C@@H]1C(O)OC(CO)C(O)C1O (stereo partly specified) [ACETYLGLUCOSAMINE]	> 46 µM
CC(=O)N(O)CCCCCNC(=O)CCC(=O)N(O)CCCCCNC(=O)CCC(=O)N(O)CCCCCN.C[S+](=O)([O-])O [Deferoxamine mesylate]	> 46 µM
CNC[C@H](O)[C@H](O)[C@H](O)[C@H](O)CO.Cc1c(Nc2ncccc2C(=O)O)cccc1C(F)(F)F [Flunixin meglumine]	> 46 µM
O=C(Nc1ccc(C(=O)O)c(O)c1)c1ccccc1 [CALCII BENZAMIDOSALICYLAS]	> 46 µM
C[C@]12CCC3[C@@H](CCC4=CC(=O)CC[C@@]43C)C1CCC2OC(=O)CCc1ccccc1 (stereo partly specified) [Testosterone 17-phenylpropionate]	> 46 µM
C=C1/C(=C\C=C2/CCC[C@]3(C)[C@@H]([C@H](C)/C=C/[C@@H](O)C4CC4)CC[C@@H]23)C[C@@H](O)C[C@@H]1O [CALCIPOTRIENE]	> 46 µM
CN1CCC[C@@H]1c1cccnc1 [(+)-NICOTINE]	> 46 µM
NCC[C@H](O)C(=O)N[C@@H]1C[C@H](N)[C@@H](O[C@H]2O[C@H](CN)[C@@H](O)[C@H](O)[C@H]2O)[C@H](O)[C@H]1O[C@H]1O[C@H](CO)[C@@H](O)[C@H](N)[C@H]1O [Amikacin sulfate]	> 46 µM
Cc1cc(O)ccc1Cl [p-Chloro-m-cresol]	> 46 µM
CC12CCC(=O)CC1CCC1C2CCC2(C)C1CCC2(C)O (stereo unspecified) [Mestanolone]	> 46 µM
CC(NC(CCc1ccccc1)C(=O)O)C(=O)N1CCCC1C(=O)O (stereo unspecified) [Enalapril acid]	> 46 µM
CC(=O)OC[C@H]1O[C@@H](O[C@H]2[C@H](O)[C@@H](OC(=O)c3ccccc3C(=O)O)[C@H](O)O[C@@H]2COC(C)=O)[C@H](O)[C@@H](OC(=O)c2ccccc2C(=O)O)[C@@H]1O [Cellulose Acetate Phthalate]	> 46 µM
CC1C2CCC3C4C\C=C/5CC(CC[C@@]5(C)C4CC[C@]23CN1C)N(C)C (stereo partly specified) [CONESSINE]	> 46 µM
OC[C@H]1O[C@H](C[C@@H]1O)N2\C=C(F)/C(=O)NC2=O [Floxuridine]	> 46 µM
CC1OC(OC2C(O)CC(OC3C(O)CC(OC4CCC5(C)C(CCC6C5CCC5(C)C(C7=CC(=O)OC7)CCC65O)C4)OC3C)OC2C)CC(O)C1O (stereo unspecified) [Digitoxin]	> 46 µM
CC(CCc1ccc(O)cc1)NCCc1ccc(O)c(O)c1 (stereo unspecified) [DOBUTAMINE]	> 46 µM
Nc1ccc(C(=O)NCC(=O)O)cc1 [Aminohippuric acid]	> 46 µM

Results, then the molecule that gave them:

IC50 of cell viability	SMILES
> 46 µM	CN1C(=O)C[C@@H](C(=O)N[C@@H](Cc2c[nH]cn2)C(=O)N2CCC[C@H]2C(N)=O)NC1=O [TALTIRELIN HYDRATE]
> 46 µM	Oc1ccccc1 [Phenol]
> 46 µM	CC/1=C(CCN2CCC(CC2)C(=O)C3=CC=C(F)C=C3)/C(=O)N4\C=C/C=C\C4=N1 [PIRENPERONE]
> 46 µM	CC(C)(C)NC[C@@H](O)COc1ccccc1C1CCCC1 [Penbutolol sulfate]
> 46 µM	CCC(C)C1NC(=O)C(Cc2ccc(O)cc2)NC(=O)C(N)CSSCC(C(=O)N2CCCC2C(=O)NC(CC(C)C)C(=O)NCC(N)=O)NC(=O)C(CC(N)=O)NC(=O)C(CCC(N)=O)NC1=O (stereo unspecified) [OXYTOCIN]
> 46 µM	c1ccc(C(OC2CCCN(CCc3ccc4c(c3)OCO4)C2)c2ccccc2)cc1 (stereo unspecified) [Zamifenacin fumarate]
> 46 µM	COc1ccc2c(C(=S)N(C)CC(=O)O)cccc2c1C(F)(F)F [Tolrestat]
> 46 µM	O=C(O)CCCCC1SCC2NC(=O)NC21 (stereo unspecified) [Vitamin B7]
> 46 µM	O=C(CCBr)N1CCN(C(=O)CCBr)CC1 [PIPOBROMAN]
> 46 µM	CCCCCCCN(CC)CCCC(O)c1ccc(N[S+](C)(=O)[O-])cc1 (stereo unspecified) [Ibutilide]
> 46 µM	NC[C@H](O)c1ccc(O)c(O)c1 [Norepinephrine bitartrate]
> 46 µM	C\C1=C\C(=O)OC2=C1C=CC(=C2)O [Hymecromone]
> 46 µM	CC(=O)N(C[C@@H](C)C(=O)O)c1c(I)cc(I)c(N)c1I [Iocetamic acid]
> 46 µM	ClC1=CC(=CC=C1)N2CCN(CCCN3\N=C4\C=C/C=C\N4C3=O)CC2 [Trazodone hydrochloride]
> 46 µM	Cc1ccc(C(=O)Nc2ccc(S(=O)(=O)O)c3cc(S(=O)(=O)O)cc(S(=O)(=O)O)c23)cc1NC(=O)c1cccc(NC(=O)Nc2cccc(C(=O)Nc3cc(C(=O)Nc4ccc(S(=O)(=O)O)c5cc(S(=O)(=O)O)cc(S(=O)(=O)O)c45)ccc3C)c2)c1 [SURAMIN]
> 46 µM	Clc1ccc(C(Cn2ccnc2)OCc2ccsc2Cl)c(Cl)c1 (stereo unspecified) [TIOCONAZOLE]
> 46 µM	CC(C)(Oc1ccc(C2CCCc3ccccc32)cc1)C(=O)O (stereo unspecified) [Nafenopin]
> 46 µM	CC1(C)Oc2ccc(C#N)cc2[C@@H](N2CCCC2=O)[C@@H]1O [Levcromakalim]

IC50 of cell viability	SMILES
> 46 µM	CCCCCCCCCCCCCCCCSCC(COC)COP(=O)([O-])OCC[N+](C)(C)C (stereo unspecified) [Ilmofosine]
> 46 µM	NC(=O)c1ncn([C@@H]2O[C@H](CO)[C@@H](O)[C@H]2O)c1O [Mizoribine]
> 46 µM	Cc1cc(C)c(NC(=O)CN(CC(=O)O)CC(=O)O)c(C)c1Br [MEBROFENIN]
> 46 µM	CC1Cc2ccccc2N1NC(=O)c1ccc(Cl)c([S+](N)(=O)[O-])c1 (stereo unspecified) [INDAPAMIDE]
> 46 µM	C=CCN1CCCC1CNC(=O)c1cc([S+](N)(=O)[O-])cc(OC)c1OC (stereo unspecified) [Veraliprida]
> 46 µM	O=c1[nH]c(=O)n(C2C[C@H](O)[C@@H](CO)O2)cc1C(F)(F)F (stereo partly specified) [Trifluridine]
> 46 µM	Nc1c[n+](N2CCOCC2)no1 [SIN-1 chloride]
> 46 µM	O=C1OC(c2cc(I)c(O)c(I)c2)(c2cc(I)c(O)c(I)c2)c2ccccc21 [Tetraiodophenolphthalein]
> 46 µM	NC1(CCC1)C2=CC=C(C=C2)C3=C(C=C/4C(=N3)\C=C/N5C(=O)N\N=C45)C6=CC=CC=C6 [MK-2206]
> 46 µM	CCC(C)[C@@H](N)C(=O)O (stereo partly specified) [ISOLEUCINE]
> 46 µM	Cc1nc(-c2ccc(Cl)cc2)oc1COC(C)(C)C(=O)O [Romazarit]
> 46 µM	CC1=CCC(C(C)(C)O)CC1 (racemic) [Terpineol, mixture of isomers]
> 46 µM	C[C@@]12CC(O)[C@]3(F)C(CCC/4=C/C(=O)/C=C\[C@@]34C)C1CC(O)[C@@]2(O)C(=O)CO (stereo partly specified) [TRIAMCINOLONE]
> 46 µM	CN(CC(=O)[NH+]1CCOCC1)Cc1c(Cl)cccc1NC(=O)c1ccccc1 [Fominoben hydrochloride]
> 46 µM	O.O.O=S([O-])CO.[Na+] [Hydroxymethanesulfinic acid monosodium salt dihydrate]
> 46 µM	Cc1c(C)c2c(c(C)c1OC(=O)CCC(=O)O)CC[C@@](C)(CCC[C@H](C)CCC[C@H](C)CCCC(C)C)O2 [TOCOPHERYL SUCCINATE]
> 46 µM	C[Se]CCC(N)C(=O)O (stereo unspecified) [SELENOMETHIONINE, SE-75]
